Measurements as given in the NIST ThermoML archive (doi:10.1021/je900290w).

Test: cn = amount concentration of the nth substance listed, in mol/dm3

CCCCCCCCCCCCCCn1cc[n+](C)c1.[Br-] [1-methyl-3-tetradecylimidazolium bromide] + O
surface tension liquid-gas [mN/m]
Conditions | c1 = 5e-05 | c1 = 0.0001 | c1 = 0.0003 | c1 = 0.0005 | c1 = 0.001 | c1 = 0.002 | c1 = 0.004 | c1 = 0.006 | c1 = 0.008 | c1 = 0.01
278.15 K | 64.69 | 64.07 | 61.72 | 55.17 | 50.32 | 41.28 | 38.44 | 38.68 | 38.88 | 38.88
288.15 K | 62.69 | 62.07 | 59.72 | 53.17 | 48.32 | 40.28 | 37.94 | 38.18 | 38.38 | 38.38
298.15 K | 61.26 | 60.88 | 57.1 | 52.79 | 47.37 | 39.48 | 37.81 | 37.73 | 37.57 | 37.57
308.15 K | 59.5 | 58.59 | 54.93 | 51.51 | 45.26 | 39.15 | 37.81 | 37.51 | 37.67 | 37.6
318.15 K | 57.16 | 55.92 | 52.9 | 49.56 | 43.88 | 39.15 | 37.12 | 37.13 | 37.12 | 37.13
328.15 K | 54.16 | 52.7 | 50.17 | 46.39 | 42.75 | 38.28 | 36.2 | 36.32 | 36.58 | 36.45

CCCCCCCCCCCCn1cc[n+](C)c1.[Br-] [1-dodecyl-3-methylimidazolium bromide] + O
surface tension liquid-gas [mN/m]
Conditions | c1 = 0.0001 | c1 = 0.0005 | c1 = 0.0015 | c1 = 0.005 | c1 = 0.01 | c1 = 0.02 | c1 = 0.03 | c1 = 0.04 | c1 = 0.05
278.15 K | 64.79 | 61.21 | 56.82 | 45.33 | 37.64 | 37.72 | 37.73 | 37.53 | 37.59
288.15 K | 62.93 | 60.86 | 56.68 | 44.27 | 37.52 | 37.63 | 37.41 | 37.77 | 37.61
298.15 K | 62.21 | 59.84 | 55.19 | 43.81 | 37.45 | 37.41 | 37.15 | 37.23 | 37.26
308.15 K | 60.48 | 58.62 | 55.18 | 44.47 | 37.18 | 37.55 | 37.38 | 37.42 | 37.23
318.15 K | 58.84 | 56.56 | 53.88 | 43.89 | 36.92 | 37.12 | 37.47 | 37.3 | 37.06
328.15 K | 57.61 | 55.07 | 50.63 | 42.36 | 37.64 | 37.03 | 37.16 | 37.06 | 37.09

CCCCCCCCCCCCCCCCn1cc[n+](C)c1.[Br-] [1-hexadecyl-3-methylimidazolium bromide] + O
surface tension liquid-gas [mN/m]
Conditions | 278.15 K | 288.15 K | 298.15 K | 308.15 K | 318.15 K | 328.15 K
c1 = 5e-06 | 69.16 | 66.26 | 63.93 | 61.53 | 58.5 | 55.05
c1 = 2e-05 | 63.91 | 61.84 | 60 | 58.48 | 54.53 | 51.85
c1 = 0.0001 | 56.17 | 52.62 | 51.14 | 49.46 | 47.36 | 45.42
c1 = 0.0002 | 50.9 | 48.63 | 46.77 | 45.39 | 42.7 | 42.13
c1 = 0.0003 | 46.66 | 43.95 | 43.38 | 41.17 | 39.84 | 39.44
c1 = 0.0004 | 42.78 | 41.32 | 39.38 | 38.02 | 37.93 | 38
c1 = 0.0005 | 39.25 | 37.45 | 37.26 | 36.21 | 36.75 | 37.07
c1 = 0.0008 | 38.25 | 37.54 | 37.37 | 36.14 | 36.11 | 36.2
c1 = 0.0011 | 38.38 | 37.4 | 37.09 | 36.28 | 36.18 | 36.25
c1 = 0.002 | 38.11 | 37.87 | 37.19 | 36.97 | 36.12 | 36.15
c1 = 0.004 | 37.61 | 37.33 | 37.21 | 36.37 | 36.04 | 35.98
